Experimental data reported in patent US5866684A, “Peptidyl inhibitors of viral proteases” (Hoffmann-La Roche Inc., priority 1996, dated 1999).
pIC50: −log10 of the molar value. Numbered stars: 1 amine (or outer) side, 2 acyl side, 3 side chain; on linkers, the order of the positions; unused ones are H or OH. Square brackets hold non-standard residues; d marks the D form. Peptide text beside a SMILES is read from it. X1 = CC(F)(F)C[C@H](N[*:1])C(=O)[*:2]; Phe(2-Me) = Cc1ccccc1C[C@H](N)C(=O)O; Suc = O=C(CCC(=O)[*:2])[*:1]; Tle = CC(C)(C)[C@H](N)C(=O)O

target: T1, HCV proteinase (Hepatitis C virus genotype 1b, UniProt P26662); experiment: HCV proteinase inhibition: cleavage of quenched fluorescence substrate NS4A/B.F peptide by enzyme MBP-NS3"Gly12-NS4A; assay type: biochemical; conditions: enzyme MBP-NS3"Gly12-NS4A 1 μg in 200 μl, pH 8.5, 15 minutes preincubation, NS4A/B.F peptide 10 μM, read after a further 10 minutes
T1 construct: Regions encompassing the NS3 proteinase domain (amino acids 1007-1219); made in house; host or cells: E. coli strain MC1061
T1 sequence (P26662 1007-1219): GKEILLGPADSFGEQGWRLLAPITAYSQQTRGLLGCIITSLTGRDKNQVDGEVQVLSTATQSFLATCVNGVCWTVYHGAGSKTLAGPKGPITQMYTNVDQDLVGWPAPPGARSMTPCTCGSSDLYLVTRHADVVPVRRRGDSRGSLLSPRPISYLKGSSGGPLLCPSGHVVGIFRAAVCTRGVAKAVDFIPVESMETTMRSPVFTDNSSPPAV
Text: As mentioned earlier, the compounds of formula I and salts of acidic compounds of formula I with bases are inhibitors of proteases of viral origin.
The nucleotide sequence of this expression plasmid is given in FIGS. 1a-j appended hereto and the amino acid sequence of its expression product is given in FIG. 2 appended hereto. It is based on the pMAL®-c2 vector supplied by New England Biolabs, Inc. (32 Tozer Rd., Beverly, Mass., USA). The principle of the construction was to create an in-frame fusion of the maltose binding protein (MBP) gene supplied by the pMAL-c2 vector, and sequences of the HCV genome necessary for NS3 proteinase activity. These HCV sequences were inserted between the EcoRI and HindIII sites of the pMAL-c2 polylinker (positions 2695 and 3556 respectively of the sequence given in FIGS. 1a-j).
HCV sequences were derived from plasmids pDS 3348-4045 and pBFK 3348-6062, described by Bartenschlager et al, 1993 (Journal of Virology, 67, 3835-3844). Regions encompassing the NS3 proteinase domain (amino acids 1007-1219) and the NS4A domain (amino acids 1658-1711) were isolated and inserted into the pMAL-c2 vector using standard recombinant DNA techniques, including the PCR amplification of required sequences. Between the NS3 and NS4A domains, a linker region was constructed using synthetic oligonucleotides (positions 3343-3390; amino acids 606-621). The resulting plasmid was used to transform E. coli (strain MC1061) cells and expression of the MBP-NS3"Gly12 -NS4A enzyme was induced as described below.
E. coli (strain MC1061) cells transformed with the foregoing plasmid were grown in Luria broth containing ampicillin (100 μg/ml) at 37° C. The cells were grown until an optical density of 0.5 at 600 nm had been reached and enzyme expression was then induced by adding 1 mM isopropylthiogalactoside and incubating at 37° C. for a further 3 hours. The cells were harvested by centrifugation and stored at -80° C.
A pellet from 4 l of bacterial culture was resuspended in E.coli lysis buffer (20 mM Tris HCl, pH 7.5, containing 150 mM NaCl, 1 mM EDTA and 10 mM dithiothreitol) and cell lysis was achieved by two passages through a French Pressure cell. The clear supernatant obtained by centrifugation (18000 g, 30 minutes) was then applied to an amylose resin column (4×1 cm) (New England Biolabs) which had been equilibrated with ice-cold 50 mM Tris HCl, pH 8.5, containing 200 mM NaCl, 1 mM dithiothreitol and 5% glycerol. The column was washed thoroughly with the equilibration buffer and bound protein was eluted using the equilibration buffer containing 10 mM maltose. Fractions of 1 ml were collected, with fractions containing the enzyme being pooled and stored at -80° C. Enzyme concentration was assayed by the method of M. B. Bradford, Analytical Biochemistry, 1976, vol. 72, p.248.
Compounds of formula I (routinely prepared as stock solutions in DMSO) were assayed for their ability to inhibit the cleavage of a quenched fluorescence substrate [NS4A/B.F peptide (N-[4-[4-(dimethylamino)phenylazo]benzoyl]-L-α-aspartyl-L-α-glutamyl-L-methionyl-L-(x-glutamyl-L-α-glutamyl-L-cysteinyl-L-alanyl-L- seryl-L-histidyl-N5-[2-(5-sulpho-1-naphthylamino)ethyl]-L-glutaminamide); Wilkinson et al, Society for General Microbiology Meeting, University of Warwick, England, 28 Mar. 1996] based on the NS4A/4B cleavage site by enzyme MBP-NS3"Gly12 -NS4A in microtitre plates as follows:
The enzyme (1 μg) was added to 200 μl final volume of a mixture containing 50 mM Tris HCl, pH 8.5, with 1 mM dithiothreitol, 0.1% Triton X-100 and the test compound of formula I. The resulting mixture was incubated at room temperature for 15 minutes prior to starting the reaction by the addition of NS4A/B.F peptide to a final concentration of 10 μM. The progress of the reaction was evaluated with a Perseptive Biosystems Cytofluor II using an excitation wavelenth of 360 nm and an emission wavelength of 530 nm. […]

In order of rising pIC50:
1. CCCC(NC(=O)[C@H](CC(C)C)NC(=O)[C@@H](NC(=O)[C@H](Cc1ccccc1C)NC(=O)[C@H](CCC(=O)O)NC(=O)[C@H](CC(=O)O)NC(=O)CCC(=O)O)C(C)(C)C)B(O)O (mixture of isomers) [F, 1(RS)-[[N-[N-[N-[N-[N-(3-carboxypropionyl)-L-α-aspartyl]-L-α-glutamyl]-2-methyl-L-phenylalanyl]-3-methyl-L-valyl]-L-leucyl]amino]butylboronic acid]  6.80
2. C=CCC(C=O)NC(=O)[C@H](CC(C)C)NC(=O)[C@@H](NC(=O)[C@H](Cc1ccccc1C)NC(=O)[C@H](CCC(=O)O)NC(=O)[C@H](CC(=O)O)NC(=O)CCC(=O)O)C(C)(C)C (mixture of isomers) [A, 2(RS)-[[N-[N-[N-[N-[N-(3-carboxypropionyl)-L-α-aspartyl]-L-α-glutamyl]-2-methyl-L-phenylalanyl]-3-methyl-L-valyl]-L-leucyl]amino]-4-pentenaldehyde]  7.05
3. Cc1ccccc1C[C@H](NC(=O)[C@H](CCC(=O)O)NC(=O)[C@H](CC(=O)O)NC(=O)CCC(=O)O)C(=O)N[C@H](C(=O)N[C@@H](CC(C)C)C(=O)N[C@H](C=O)CC(C)(F)F)C(C)(C)C [B, 2(S)-[[N-[N-[N-[N-[N-(3-carboxypropionyl)-L-α-aspartyl]-L-α-glutamyl]-2-methyl-L-phenylalanyl]-3-methyl-L-valyl]-L-leucyl]amino]-4,4-difluorovaleraldehyde] (Suc-DE[Phe(2-Me)][Tle]L[X1]-aldehyde)  7.15
4. Cc1ccccc1C[C@H](NC(=O)[C@H](CCC(=O)O)NC(=O)[C@H](CC(=O)O)NC(=O)CCC(=O)O)C(=O)N[C@H](C(=O)N[C@@H](CC(C)C)C(=O)NC(C=O)CC(F)(F)F)C(C)(C)C (mixture of isomers) [C, 2(RS)-[[N-[N-[N-[N-[N-(3-carboxypropionyl)-L-α-aspartyl]-L-α-glutamyl]-2-methyl-L-phenylalanyl]-3-methyl-L-valyl]-L-leucyl]amino]-4,4,4-trifluorobutyraldehyde]  7.19
5. CCC(NC(=O)[C@H](CC(C)C)NC(=O)[C@@H](NC(=O)[C@H](Cc1ccccc1C)NC(=O)[C@H](CCC(=O)O)NC(=O)[C@H](CC(=O)O)NC(=O)CCC(=O)O)C(C)(C)C)B(O)O (mixture of isomers) [E, 1(RS)-[[N-[N-[N-[N-[N-(3-carboxypropionyl)-L-α-aspartyl]-L-α-glutamyl]-2-methyl-L-phenylalanyl]-3-methyl-L-valyl]-L-leucyl]amino]propylboronic acid]  7.42
6. C=CCC(NC(=O)[C@H](CC(C)C)NC(=O)[C@@H](NC(=O)[C@H](Cc1ccccc1C)NC(=O)[C@H](CCC(=O)O)NC(=O)[C@H](CC(=O)O)NC(=O)CCC(=O)O)C(C)(C)C)B(O)O (mixture of isomers) [D, 1(RS)-[[N-[N-[N-[N-[N-(3-carboxypropionyl)-L-α-aspartyl]-L-α-glutamyl]-2-methyl-L-phenylalanyl]-3-methyl-L-valyl]-L-leucyl]amino]-3-butenylboronic acid]  7.47
